# Experimental data published in ChEMBL document CHEMBL4800727 (2021).
# What was measured:
# [1] = molecular target: T1, Sodium-dependent dopamine transporter (Homo sapiens, UniProt Q01959); experiment: GPCRScan assay: inhibition of DAT; parameters: radioligand conc. used [nm] 3.6 – 16.0, parental cells stable HEK
# [2] = molecular target: GABA-A receptor; anion channel; experiment: GPCRScan assay: inhibition of GABAA; assay type: protein-complex assay, Rattus norvegicus; parameters: radioligand conc. used [nm] 9.50 – 25.0, parental cells brain tissue
# [3] = molecular target: Alpha-2A adrenergic receptor (Homo sapiens) (UniProt P08913); details: Compound concentration 10.0 uM
# [4] = molecular target: 5-hydroxytryptamine receptor 2B (Homo sapiens, UniProt P41595); experiment: GPCRScan assay: inhibition of 5-HT2B; parameters: radioligand conc. used [nm] 1.0 – 2.0, parental cells stable HEK
# 5-hydroxytryptamine receptor 2B, sequence (P41595 whole entry): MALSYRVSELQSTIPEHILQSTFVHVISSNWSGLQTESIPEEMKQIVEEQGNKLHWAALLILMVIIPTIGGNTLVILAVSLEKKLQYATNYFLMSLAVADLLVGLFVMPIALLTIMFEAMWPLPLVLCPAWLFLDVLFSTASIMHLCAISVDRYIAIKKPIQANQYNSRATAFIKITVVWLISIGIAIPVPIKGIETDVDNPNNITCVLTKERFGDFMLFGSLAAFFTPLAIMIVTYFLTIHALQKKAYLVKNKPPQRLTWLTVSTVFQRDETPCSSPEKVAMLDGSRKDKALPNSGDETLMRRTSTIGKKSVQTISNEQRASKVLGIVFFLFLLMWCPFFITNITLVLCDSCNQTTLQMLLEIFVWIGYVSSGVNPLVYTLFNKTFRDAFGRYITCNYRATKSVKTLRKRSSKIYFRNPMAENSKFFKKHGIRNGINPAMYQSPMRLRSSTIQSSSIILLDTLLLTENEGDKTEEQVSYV
# [5] = molecular target: Alpha-2B adrenergic receptor (Homo sapiens, UniProt P18089); experiment: GPCRScan assay: inhibition of Alpha2B; parameters: radioligand conc. used [nm] 1.5 – 2.0, parental cells HEKT
# Alpha-2B adrenergic receptor, sequence (P18089 whole entry): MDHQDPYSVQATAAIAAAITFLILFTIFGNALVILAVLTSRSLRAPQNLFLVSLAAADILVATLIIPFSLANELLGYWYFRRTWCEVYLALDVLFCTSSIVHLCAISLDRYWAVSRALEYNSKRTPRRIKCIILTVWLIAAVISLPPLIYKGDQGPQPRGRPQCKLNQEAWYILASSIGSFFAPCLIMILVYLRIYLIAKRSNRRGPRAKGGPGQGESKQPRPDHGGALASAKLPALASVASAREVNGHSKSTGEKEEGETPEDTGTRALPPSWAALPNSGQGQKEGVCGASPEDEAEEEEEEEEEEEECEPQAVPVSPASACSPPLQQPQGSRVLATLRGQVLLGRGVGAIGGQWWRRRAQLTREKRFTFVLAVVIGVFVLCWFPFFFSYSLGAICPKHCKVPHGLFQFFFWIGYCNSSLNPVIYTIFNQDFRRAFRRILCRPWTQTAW
# [6] = molecular target: CDK6/cyclin D3 (Homo sapiens) (UniProt P30281+Q00534); experiment: cyclin-dependent kinase 6 / cyclinD3 Millipore kinase panel; assay type: protein-complex assay; details: Compound concentration 10.0 uM
# [7] = molecular target: Fibroblast growth factor receptor 1 (Homo sapiens) (UniProt P11362); experiment: fibroblast growth factor receptor 1 Millipore kinase panel; details: Compound concentration 10.0 uM
# [8] = molecular target: Receptor-type tyrosine-protein kinase FLT3 (Homo sapiens) (UniProt P36888); experiment: fms-related tyrosine kinase 3 Millipore kinase panel; details: Compound concentration 10.0 uM
# [9] = molecular target: Vascular endothelial growth factor receptor 3 (Homo sapiens) (UniProt P35916); experiment: fms-related tyrosine kinase 4 Millipore kinase panel; details: Compound concentration 10.0 uM
# [10] = molecular target: Glycogen synthase kinase-3 beta (Homo sapiens) (UniProt P49841); experiment: glycogen synthase kinase 3 beta Millipore kinase panel; details: Compound concentration 10.0 uM
# [11] = molecular target: Insulin receptor (Homo sapiens) (UniProt P06213); experiment: insulin receptor (activated) Millipore kinase panel; details: Compound concentration 10.0 uM
# Insulin receptor (Homo sapiens), sequence (P06213 28-758 limits assumed): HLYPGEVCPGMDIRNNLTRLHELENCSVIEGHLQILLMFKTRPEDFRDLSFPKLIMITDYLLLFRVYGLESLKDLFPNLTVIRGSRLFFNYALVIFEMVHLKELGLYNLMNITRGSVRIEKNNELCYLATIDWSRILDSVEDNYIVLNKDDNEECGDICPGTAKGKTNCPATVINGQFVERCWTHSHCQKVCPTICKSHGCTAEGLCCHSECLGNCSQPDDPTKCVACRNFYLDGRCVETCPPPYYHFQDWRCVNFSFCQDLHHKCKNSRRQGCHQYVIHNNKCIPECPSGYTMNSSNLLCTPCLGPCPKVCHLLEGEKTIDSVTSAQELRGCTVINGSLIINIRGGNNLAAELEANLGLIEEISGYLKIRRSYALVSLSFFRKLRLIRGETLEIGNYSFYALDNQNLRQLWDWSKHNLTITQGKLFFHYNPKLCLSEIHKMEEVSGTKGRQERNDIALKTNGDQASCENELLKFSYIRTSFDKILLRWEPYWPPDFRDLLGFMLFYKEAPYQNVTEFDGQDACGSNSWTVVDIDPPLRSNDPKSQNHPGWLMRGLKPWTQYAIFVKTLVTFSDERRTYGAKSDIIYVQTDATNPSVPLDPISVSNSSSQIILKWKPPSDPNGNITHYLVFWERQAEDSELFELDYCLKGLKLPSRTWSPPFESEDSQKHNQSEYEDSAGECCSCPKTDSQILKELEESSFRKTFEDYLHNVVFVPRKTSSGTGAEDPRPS
# Insulin receptor (Homo sapiens), sequence (P06213 763-1382 limits assumed): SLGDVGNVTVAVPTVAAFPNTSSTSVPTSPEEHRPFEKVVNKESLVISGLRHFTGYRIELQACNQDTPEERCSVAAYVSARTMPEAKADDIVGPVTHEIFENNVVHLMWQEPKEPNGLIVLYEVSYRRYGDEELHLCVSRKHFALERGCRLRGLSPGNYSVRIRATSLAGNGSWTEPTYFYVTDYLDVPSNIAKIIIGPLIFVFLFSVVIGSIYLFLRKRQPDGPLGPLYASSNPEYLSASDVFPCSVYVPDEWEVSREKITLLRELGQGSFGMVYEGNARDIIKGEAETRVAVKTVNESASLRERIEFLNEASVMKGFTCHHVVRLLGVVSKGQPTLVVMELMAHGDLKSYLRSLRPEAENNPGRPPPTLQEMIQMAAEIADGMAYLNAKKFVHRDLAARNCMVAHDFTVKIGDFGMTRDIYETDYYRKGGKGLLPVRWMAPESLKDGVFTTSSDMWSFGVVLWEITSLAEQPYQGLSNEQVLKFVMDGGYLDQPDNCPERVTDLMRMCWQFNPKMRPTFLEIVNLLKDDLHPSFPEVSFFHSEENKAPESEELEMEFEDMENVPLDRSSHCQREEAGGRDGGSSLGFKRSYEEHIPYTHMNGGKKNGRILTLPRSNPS
# [12] = molecular target: Interleukin-1 receptor-associated kinase 1 (Homo sapiens) (UniProt P51617); experiment: interleukin-1 receptor-associated kinase 1 Millipore kinase panel; details: Compound concentration 10.0 uM
# [13] = molecular target: Interleukin-1 receptor-associated kinase 4 (Homo sapiens) (UniProt Q9NWZ3); experiment: interleukin-1 receptor-associated kinase 4 Millipore kinase panel; details: Compound concentration 10.0 uM
# Interleukin-1 receptor-associated kinase 4 (Homo sapiens), sequence (Q9NWZ3 whole entry): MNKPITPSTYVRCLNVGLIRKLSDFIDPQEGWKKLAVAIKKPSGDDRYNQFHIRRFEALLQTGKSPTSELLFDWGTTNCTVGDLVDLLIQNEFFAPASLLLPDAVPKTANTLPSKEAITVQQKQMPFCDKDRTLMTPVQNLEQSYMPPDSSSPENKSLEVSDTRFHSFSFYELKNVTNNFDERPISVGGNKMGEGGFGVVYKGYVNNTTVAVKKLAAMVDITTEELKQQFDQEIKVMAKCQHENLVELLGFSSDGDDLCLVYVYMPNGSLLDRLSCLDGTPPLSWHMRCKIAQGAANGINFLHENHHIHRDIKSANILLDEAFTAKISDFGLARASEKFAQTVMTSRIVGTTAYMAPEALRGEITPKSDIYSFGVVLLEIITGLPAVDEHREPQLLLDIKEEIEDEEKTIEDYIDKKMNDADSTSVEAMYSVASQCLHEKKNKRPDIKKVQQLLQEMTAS
# [14] = molecular target: Tyrosine-protein kinase Lck (Homo sapiens) (UniProt P06239); experiment: lymphocyte-specific protein tyrosine kinase (activated) Millipore kinase panel; details: Compound concentration 10.0 uM
# Tyrosine-protein kinase Lck (Homo sapiens), sequence (P06239 2-509 limits assumed): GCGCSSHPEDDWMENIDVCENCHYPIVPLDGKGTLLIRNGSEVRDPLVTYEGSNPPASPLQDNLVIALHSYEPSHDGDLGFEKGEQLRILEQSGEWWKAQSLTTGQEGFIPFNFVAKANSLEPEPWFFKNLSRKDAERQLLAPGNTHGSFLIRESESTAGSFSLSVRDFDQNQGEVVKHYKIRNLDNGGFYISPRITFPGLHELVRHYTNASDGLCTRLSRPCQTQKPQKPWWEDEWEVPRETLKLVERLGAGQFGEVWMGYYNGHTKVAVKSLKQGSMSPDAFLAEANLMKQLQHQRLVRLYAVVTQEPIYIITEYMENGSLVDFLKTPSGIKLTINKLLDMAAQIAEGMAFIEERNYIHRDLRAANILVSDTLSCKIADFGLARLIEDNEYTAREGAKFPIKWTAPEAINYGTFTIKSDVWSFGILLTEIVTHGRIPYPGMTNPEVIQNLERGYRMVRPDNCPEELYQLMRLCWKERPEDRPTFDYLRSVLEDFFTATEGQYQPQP
# [15] = molecular target: Tyrosine-protein kinase Lck (Homo sapiens) (UniProt P06239); experiment: lymphocyte-specific protein tyrosine kinase Millipore kinase panel; details: Compound concentration 10.0 uM
# [16] = molecular target: Serine/threonine-protein kinase MARK1 (Homo sapiens) (UniProt Q9P0L2); experiment: MAP/microtubule affinity-regulating kinase 1 Millipore kinase panel; details: Compound concentration 10.0 uM
# [17] = molecular target: Mitogen-activated protein kinase 8 (Homo sapiens) (UniProt P45983); experiment: mitogen-activated protein kinase 8 Millipore kinase panel; details: Compound concentration 10.0 uM
# [18] = molecular target: Mitogen-activated protein kinase kinase kinase 5 (Homo sapiens) (UniProt Q99683); experiment: mitogen-activated protein kinase kinase kinase 5 Millipore kinase panel; details: Compound concentration 10.0 uM
# [19] = molecular target: Mitogen-activated protein kinase kinase kinase 9 (Homo sapiens) (UniProt P80192); experiment: mitogen-activated protein kinase kinase kinase 9 Millipore kinase panel; details: Compound concentration 10.0 uM
# [20] = molecular target: Mitogen-activated protein kinase kinase kinase kinase 1 (Homo sapiens) (UniProt Q92918); experiment: mitogen-activated protein kinase kinase kinase kinase 1 Millipore kinase panel; details: Compound concentration 10.0 uM
# [21] = molecular target: PI3-kinase p110-delta/p85-alpha (Homo sapiens) (UniProt P27986+O00329); experiment: phosphoinositide-3-kinase, catalytic, delta polypeptide Millipore kinase panel; assay type: protein-complex assay; details: Compound concentration 10.0 uM
# [22] = molecular target: Phosphorylase b kinase gamma catalytic chain, liver/testis isoform (Homo sapiens) (UniProt P15735); experiment: phosphorylase kinase, gamma 2 Millipore kinase panel; details: Compound concentration 10.0 uM
# [23] = molecular target: Serine/threonine-protein kinase pim-1 (Homo sapiens) (UniProt P11309); experiment: pim-1 oncogene Millipore kinase panel; details: Compound concentration 10.0 uM
# [24] = molecular target: Serine/threonine-protein kinase PLK2 (Homo sapiens) (UniProt Q9NYY3); experiment: polo-like kinase 2 Millipore kinase panel; details: Compound concentration 10.0 uM
# Homo sapiens = species: Homo sapiens; experiment: protein kinase C, beta 2 Millipore kinase panel; details: Compound concentration 10.0 uM
# [25] = molecular target: Protein kinase C iota type (Homo sapiens) (UniProt P41743); experiment: protein kinase C, iota Millipore kinase panel; details: Compound concentration 10.0 uM
# [26] = molecular target: Serine/threonine-protein kinase D1 (Homo sapiens) (UniProt Q15139); experiment: protein kinase D1 Millipore kinase panel; details: Compound concentration 10.0 uM
# [27] = molecular target: Serine/threonine-protein kinase D2 (Homo sapiens) (UniProt Q9BZL6); experiment: protein kinase D2 Millipore kinase panel; details: Compound concentration 10.0 uM
# [28] = molecular target: cGMP-dependent protein kinase 2 (Homo sapiens) (UniProt Q13237); experiment: protein kinase, cGMP-dependent, type II Millipore kinase panel; details: Compound concentration 10.0 uM
# [29] = molecular target: Serine/threonine-protein kinase 17A (Homo sapiens) (UniProt Q9UEE5); experiment: serine/threonine kinase 17a Millipore kinase panel; details: Compound concentration 10.0 uM
# [30] = molecular target: Serine/threonine-protein kinase 33 (Homo sapiens) (UniProt Q9BYT3); experiment: serine/threonine kinase 33 Millipore kinase panel; details: Compound concentration 10.0 uM
# [31] = molecular target: Serine/threonine-protein kinase Sgk2 (Homo sapiens) (UniProt Q9HBY8); experiment: serum/glucocorticoid regulated kinase 2 Millipore kinase panel; details: Compound concentration 10.0 uM
# [32] = molecular target: Serine/threonine-protein kinase TAO2 (Homo sapiens) (UniProt Q9UL54); experiment: TAO kinase 2 Millipore kinase panel; details: Compound concentration 10.0 uM
# [33] = molecular target: Serine/threonine-protein kinase TAO3 (Homo sapiens) (UniProt Q9H2K8); experiment: TAO kinase 3 Millipore kinase panel; details: Compound concentration 10.0 uM
# [34] = molecular target: Angiopoietin-1 receptor (Homo sapiens) (UniProt Q02763); experiment: TEK tyrosine kinase, endothelial Millipore kinase panel; details: Compound concentration 10.0 uM
# [35] = molecular target: Testis-specific serine/threonine-protein kinase 2 (Homo sapiens) (UniProt Q96PF2); experiment: testis-specific serine kinase 2 Millipore kinase panel; details: Compound concentration 10.0 uM
# [36] = molecular target: Tyrosine-protein kinase ABL2 (Homo sapiens) (UniProt P42684); experiment: v-abl Abelson murine leukemia viral oncogene homolog 2 Millipore kinase panel; details: Compound concentration 10.0 uM
# [37] = molecular target: Proto-oncogene tyrosine-protein kinase Src (Homo sapiens) (UniProt P12931); experiment: v-src sarcoma viral oncogene homolog Millipore kinase panel; details: Compound concentration 10.0 uM
# [38] = molecular target: Tyrosine-protein kinase Yes (Homo sapiens) (UniProt P07947); experiment: v-yes-1 Yamaguchi sarcoma viral oncogene homolog 1 Millipore kinase panel; details: Compound concentration 10.0 uM
# Rattus norvegicus [39] = species: Rattus norvegicus; experiment: rCa channel Cerep panel; details: Compound concentration 10.0 uM
# [40] = molecular target: Gastrin/cholecystokinin type B receptor (Homo sapiens) (UniProt P32239); experiment: hCCK2 Cerep panel; details: Compound concentration 10.0 uM
# [41] = molecular target: T1, Sodium-dependent dopamine transporter; experiment: hDAT Cerep panel; details: Compound concentration 10.0 uM
# [42] = molecular target: Endothelin-1 receptor (Homo sapiens) (UniProt P25101); experiment: hETA Cerep panel; details: Compound concentration 10.0 uM
# Rattus norvegicus [43] = species: Rattus norvegicus; experiment: rGABA Cerep panel; details: Compound concentration 10.0 uM
# [44] = molecular target: Neurotensin receptor type 1 (Homo sapiens) (UniProt P30989); experiment: hNT1 Cerep panel; details: Compound concentration 10.0 uM
# [45] = molecular target: Vasopressin V1a receptor (Homo sapiens) (UniProt P37288); experiment: hV1a Cerep panel; details: Compound concentration 10.0 uM
# Vasopressin V1a receptor (Homo sapiens), sequence (P37288 whole entry, looked up): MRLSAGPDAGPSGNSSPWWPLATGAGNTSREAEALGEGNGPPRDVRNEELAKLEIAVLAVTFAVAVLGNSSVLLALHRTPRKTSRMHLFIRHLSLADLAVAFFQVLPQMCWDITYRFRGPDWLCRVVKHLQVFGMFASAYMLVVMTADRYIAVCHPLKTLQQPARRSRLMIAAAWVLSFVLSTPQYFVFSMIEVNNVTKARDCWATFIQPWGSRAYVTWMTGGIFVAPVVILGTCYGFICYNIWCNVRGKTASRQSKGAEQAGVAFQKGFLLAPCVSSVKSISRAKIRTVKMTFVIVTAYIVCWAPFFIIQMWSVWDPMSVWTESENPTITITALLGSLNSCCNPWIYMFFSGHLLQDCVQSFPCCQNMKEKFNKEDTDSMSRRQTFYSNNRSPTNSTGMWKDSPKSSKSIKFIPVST
# Rattus norvegicus [46] = species: Rattus norvegicus; experiment: rSKCa channel Cerep panel; details: Compound concentration 10.0 uM
# [47] = molecular target: Acetylcholinesterase (Homo sapiens) (UniProt P22303); experiment: hACHE Cerep panel; details: Compound concentration 10.0 uM
# Acetylcholinesterase (Homo sapiens), sequence (P22303 whole entry): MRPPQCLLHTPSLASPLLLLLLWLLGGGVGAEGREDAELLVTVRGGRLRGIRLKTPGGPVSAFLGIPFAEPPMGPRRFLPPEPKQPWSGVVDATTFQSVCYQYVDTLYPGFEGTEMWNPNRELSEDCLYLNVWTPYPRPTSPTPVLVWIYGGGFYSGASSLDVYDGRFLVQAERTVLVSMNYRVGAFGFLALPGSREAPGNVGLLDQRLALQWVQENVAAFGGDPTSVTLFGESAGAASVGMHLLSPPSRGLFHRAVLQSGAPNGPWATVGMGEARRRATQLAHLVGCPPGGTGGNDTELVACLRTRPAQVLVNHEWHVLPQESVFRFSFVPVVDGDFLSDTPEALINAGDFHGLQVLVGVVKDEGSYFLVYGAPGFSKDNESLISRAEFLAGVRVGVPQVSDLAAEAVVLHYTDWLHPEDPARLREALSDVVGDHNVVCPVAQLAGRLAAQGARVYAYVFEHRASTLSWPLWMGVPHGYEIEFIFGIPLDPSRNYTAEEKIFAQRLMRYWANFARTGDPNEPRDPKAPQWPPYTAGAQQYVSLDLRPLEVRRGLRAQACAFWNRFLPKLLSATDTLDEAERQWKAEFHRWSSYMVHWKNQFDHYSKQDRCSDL
# [48] = PPAR1C Cerep panel; details: Compound concentration 10.0 uM
# [49] = molecular target: Tyrosine-protein kinase Lck (Homo sapiens) (UniProt P06239); experiment: hLck Cerep panel; details: Compound concentration 10.0 uM
# [50] = molecular target: 3',5'-cyclic-AMP phosphodiesterase 4D (Homo sapiens, UniProt Q08499); experiment: hPDE4D2 Cerep panel; details: Compound concentration 10.0 uM
# [51] = molecular target: Histamine H2 receptor (Homo sapiens) (UniProt P25021); details: Compound concentration 10.0 uM
# [52] = molecular target: Muscarinic acetylcholine receptor M3 (Homo sapiens) (UniProt P20309); details: Compound concentration 10.0 uM
# T1 sequence (Q01959 whole entry): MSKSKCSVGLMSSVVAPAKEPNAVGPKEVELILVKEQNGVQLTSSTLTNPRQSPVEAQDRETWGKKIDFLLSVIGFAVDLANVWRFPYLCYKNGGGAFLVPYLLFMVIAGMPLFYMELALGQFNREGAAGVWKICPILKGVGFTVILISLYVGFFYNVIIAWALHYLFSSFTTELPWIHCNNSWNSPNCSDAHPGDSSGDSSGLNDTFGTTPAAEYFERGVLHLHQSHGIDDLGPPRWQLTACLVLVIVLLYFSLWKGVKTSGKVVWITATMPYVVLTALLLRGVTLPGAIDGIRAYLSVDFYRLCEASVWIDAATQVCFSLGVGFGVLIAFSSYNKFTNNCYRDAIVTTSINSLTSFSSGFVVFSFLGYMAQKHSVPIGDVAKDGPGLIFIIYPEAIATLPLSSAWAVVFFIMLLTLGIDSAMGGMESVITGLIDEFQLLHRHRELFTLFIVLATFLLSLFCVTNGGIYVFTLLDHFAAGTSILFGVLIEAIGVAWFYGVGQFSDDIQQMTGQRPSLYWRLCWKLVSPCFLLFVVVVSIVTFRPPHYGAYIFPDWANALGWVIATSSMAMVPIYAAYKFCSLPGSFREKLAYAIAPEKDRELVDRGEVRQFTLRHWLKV
structure (smiles),measurement,setting,value
c1ccc(C2CCN(c3cnc4c(N5CCOCC5)nccn34)CC2)cc1,Ki,[1]; read-out: Ki,4130 nM
same,Ki,[1]; read-out: pKi (converted),4170 nM
same,Ki,[2],1820 nM
same,inhibition,[3],34.6%
COCCc1ccc(-c2c(C)nc3c(N4CCOCC4)ccnn23)cn1 [JNJ-42396302],Ki,[4]; read-out: Ki,2290 nM
same,Ki,[4]; read-out: pKi (converted),2240 nM
same,Ki,[5],> 10000 nM
same,pKi,[5],< 5
same,inhibition,[6],0%
same,inhibition,[7],8%
same,inhibition,[8],6%
same,inhibition,[9],-4%
same,inhibition,[10],-1%
same,inhibition,[11],-2%
same,inhibition,[12],-3%
same,inhibition,[13],-1%
same,inhibition,[14],-4%
same,inhibition,[15],13%
same,inhibition,[16],-6%
same,inhibition,[17],-3%
same,inhibition,[18],-2%
same,inhibition,[19],5%
same,inhibition,[20],5.53%
same,inhibition,[21],1%
same,inhibition,[22],-3%
same,inhibition,[23],10%
same,inhibition,[24],-7%
same,inhibition,Homo sapiens,3%
same,inhibition,[25],3%
same,inhibition,[26],-5%
same,inhibition,[27],2%
same,inhibition,[28],1%
same,inhibition,[29],-9%
same,inhibition,[30],-1%
same,inhibition,[31],-3%
same,inhibition,[32],10%
same,inhibition,[33],0%
same,inhibition,[34],1%
same,inhibition,[35],1%
same,inhibition,[36],6%
same,inhibition,[37],-5%
same,inhibition,[38],0%
same,effect,Rattus norvegicus [39],4.75%
same,effect,[40],-5.55%
same,effect,[41],4.5%
same,effect,[42],5.55%
same,effect,Rattus norvegicus [43],21.1%
same,effect,[44],12.3%
same,effect,[45],8.9%
same,effect,Rattus norvegicus [46],7.4%
same,effect,[47],0.2%
same,effect,[48],-2.05%
same,effect,[49],-2.4%
same,effect,[50],27.3%
same,inhibition,[51],12.9%
same,inhibition,[52],6.41%
